# ChEMBL document CHEMBL3784917, “Recent Progress in Histone Demethylase Inhibitors” (J Med Chem, 2016)
# Experiments:
# [1] = target: T1, Lysine-specific demethylase 4C (Homo sapiens, UniProt Q9H3R0)
# T1 sequence (Q9H3R0 whole entry): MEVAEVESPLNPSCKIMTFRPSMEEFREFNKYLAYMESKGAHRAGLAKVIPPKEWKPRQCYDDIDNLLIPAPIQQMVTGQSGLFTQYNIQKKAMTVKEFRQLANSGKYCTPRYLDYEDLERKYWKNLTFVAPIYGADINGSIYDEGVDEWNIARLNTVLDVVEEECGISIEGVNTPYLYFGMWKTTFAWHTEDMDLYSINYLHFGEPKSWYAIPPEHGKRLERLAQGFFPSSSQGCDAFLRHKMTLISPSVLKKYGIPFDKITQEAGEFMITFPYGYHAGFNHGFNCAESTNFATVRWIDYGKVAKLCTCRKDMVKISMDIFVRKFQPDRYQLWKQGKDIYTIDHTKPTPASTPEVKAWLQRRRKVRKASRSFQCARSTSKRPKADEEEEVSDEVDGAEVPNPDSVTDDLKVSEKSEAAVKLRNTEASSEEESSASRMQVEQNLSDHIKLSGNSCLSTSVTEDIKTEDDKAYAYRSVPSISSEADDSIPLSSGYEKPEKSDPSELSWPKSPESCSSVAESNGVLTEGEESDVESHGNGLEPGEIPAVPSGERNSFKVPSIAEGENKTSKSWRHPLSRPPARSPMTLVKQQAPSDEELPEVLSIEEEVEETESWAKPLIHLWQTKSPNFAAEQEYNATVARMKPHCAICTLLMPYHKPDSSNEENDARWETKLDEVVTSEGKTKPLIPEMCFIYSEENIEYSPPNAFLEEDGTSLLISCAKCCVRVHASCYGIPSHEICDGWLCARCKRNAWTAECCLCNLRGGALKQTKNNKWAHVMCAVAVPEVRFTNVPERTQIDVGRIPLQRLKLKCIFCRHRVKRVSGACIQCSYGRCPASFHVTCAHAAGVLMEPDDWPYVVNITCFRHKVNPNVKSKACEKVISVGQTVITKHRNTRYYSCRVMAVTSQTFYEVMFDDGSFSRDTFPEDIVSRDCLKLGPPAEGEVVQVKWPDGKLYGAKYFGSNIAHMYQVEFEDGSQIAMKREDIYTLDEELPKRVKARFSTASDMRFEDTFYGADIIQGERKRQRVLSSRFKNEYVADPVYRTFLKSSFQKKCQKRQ
# [2] = target: T2, Lysine-specific demethylase 4B (Homo sapiens, UniProt O94953); assay: Inhibition of human N-terminal GST-tagged KDM4B (1 to 500 residues) expressed in baculovirus infected sf9 cells using biotinylated histone H3 as substrate preincubated for 10 mins followed by substrate addition measured after 10 mins by AlphaLisa assay
# T2 sequence (O94953 whole entry): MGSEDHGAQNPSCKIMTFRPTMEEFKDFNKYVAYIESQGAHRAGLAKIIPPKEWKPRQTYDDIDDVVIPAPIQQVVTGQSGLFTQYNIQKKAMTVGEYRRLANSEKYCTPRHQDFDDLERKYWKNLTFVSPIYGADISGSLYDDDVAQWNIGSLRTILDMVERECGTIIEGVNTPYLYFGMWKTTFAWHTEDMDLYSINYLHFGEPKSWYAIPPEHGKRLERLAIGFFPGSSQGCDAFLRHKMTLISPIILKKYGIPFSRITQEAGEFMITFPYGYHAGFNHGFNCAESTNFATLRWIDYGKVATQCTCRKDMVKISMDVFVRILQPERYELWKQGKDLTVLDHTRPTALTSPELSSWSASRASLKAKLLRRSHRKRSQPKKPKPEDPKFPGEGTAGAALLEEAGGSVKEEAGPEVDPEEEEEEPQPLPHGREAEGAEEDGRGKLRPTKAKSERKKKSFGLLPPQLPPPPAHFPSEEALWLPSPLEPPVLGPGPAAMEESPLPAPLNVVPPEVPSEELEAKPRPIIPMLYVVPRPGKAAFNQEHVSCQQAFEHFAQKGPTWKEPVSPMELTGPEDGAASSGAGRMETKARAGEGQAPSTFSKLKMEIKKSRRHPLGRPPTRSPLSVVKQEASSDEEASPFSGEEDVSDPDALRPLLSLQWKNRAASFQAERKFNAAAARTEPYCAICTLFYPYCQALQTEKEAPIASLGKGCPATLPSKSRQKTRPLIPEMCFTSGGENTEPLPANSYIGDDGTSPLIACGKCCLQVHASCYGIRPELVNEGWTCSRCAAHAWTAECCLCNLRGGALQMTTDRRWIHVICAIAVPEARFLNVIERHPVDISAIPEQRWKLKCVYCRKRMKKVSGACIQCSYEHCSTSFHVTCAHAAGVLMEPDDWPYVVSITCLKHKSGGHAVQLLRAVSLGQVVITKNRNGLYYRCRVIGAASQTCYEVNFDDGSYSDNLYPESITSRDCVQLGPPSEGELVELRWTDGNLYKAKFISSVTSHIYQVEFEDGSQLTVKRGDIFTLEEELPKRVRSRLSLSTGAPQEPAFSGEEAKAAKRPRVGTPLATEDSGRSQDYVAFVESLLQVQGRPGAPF
# [3] = target: Lysine-specific demethylase 6B (Homo sapiens, UniProt O15054); assay: biochemical
# Sequence of Lysine-specific demethylase 6B (O15054 whole entry): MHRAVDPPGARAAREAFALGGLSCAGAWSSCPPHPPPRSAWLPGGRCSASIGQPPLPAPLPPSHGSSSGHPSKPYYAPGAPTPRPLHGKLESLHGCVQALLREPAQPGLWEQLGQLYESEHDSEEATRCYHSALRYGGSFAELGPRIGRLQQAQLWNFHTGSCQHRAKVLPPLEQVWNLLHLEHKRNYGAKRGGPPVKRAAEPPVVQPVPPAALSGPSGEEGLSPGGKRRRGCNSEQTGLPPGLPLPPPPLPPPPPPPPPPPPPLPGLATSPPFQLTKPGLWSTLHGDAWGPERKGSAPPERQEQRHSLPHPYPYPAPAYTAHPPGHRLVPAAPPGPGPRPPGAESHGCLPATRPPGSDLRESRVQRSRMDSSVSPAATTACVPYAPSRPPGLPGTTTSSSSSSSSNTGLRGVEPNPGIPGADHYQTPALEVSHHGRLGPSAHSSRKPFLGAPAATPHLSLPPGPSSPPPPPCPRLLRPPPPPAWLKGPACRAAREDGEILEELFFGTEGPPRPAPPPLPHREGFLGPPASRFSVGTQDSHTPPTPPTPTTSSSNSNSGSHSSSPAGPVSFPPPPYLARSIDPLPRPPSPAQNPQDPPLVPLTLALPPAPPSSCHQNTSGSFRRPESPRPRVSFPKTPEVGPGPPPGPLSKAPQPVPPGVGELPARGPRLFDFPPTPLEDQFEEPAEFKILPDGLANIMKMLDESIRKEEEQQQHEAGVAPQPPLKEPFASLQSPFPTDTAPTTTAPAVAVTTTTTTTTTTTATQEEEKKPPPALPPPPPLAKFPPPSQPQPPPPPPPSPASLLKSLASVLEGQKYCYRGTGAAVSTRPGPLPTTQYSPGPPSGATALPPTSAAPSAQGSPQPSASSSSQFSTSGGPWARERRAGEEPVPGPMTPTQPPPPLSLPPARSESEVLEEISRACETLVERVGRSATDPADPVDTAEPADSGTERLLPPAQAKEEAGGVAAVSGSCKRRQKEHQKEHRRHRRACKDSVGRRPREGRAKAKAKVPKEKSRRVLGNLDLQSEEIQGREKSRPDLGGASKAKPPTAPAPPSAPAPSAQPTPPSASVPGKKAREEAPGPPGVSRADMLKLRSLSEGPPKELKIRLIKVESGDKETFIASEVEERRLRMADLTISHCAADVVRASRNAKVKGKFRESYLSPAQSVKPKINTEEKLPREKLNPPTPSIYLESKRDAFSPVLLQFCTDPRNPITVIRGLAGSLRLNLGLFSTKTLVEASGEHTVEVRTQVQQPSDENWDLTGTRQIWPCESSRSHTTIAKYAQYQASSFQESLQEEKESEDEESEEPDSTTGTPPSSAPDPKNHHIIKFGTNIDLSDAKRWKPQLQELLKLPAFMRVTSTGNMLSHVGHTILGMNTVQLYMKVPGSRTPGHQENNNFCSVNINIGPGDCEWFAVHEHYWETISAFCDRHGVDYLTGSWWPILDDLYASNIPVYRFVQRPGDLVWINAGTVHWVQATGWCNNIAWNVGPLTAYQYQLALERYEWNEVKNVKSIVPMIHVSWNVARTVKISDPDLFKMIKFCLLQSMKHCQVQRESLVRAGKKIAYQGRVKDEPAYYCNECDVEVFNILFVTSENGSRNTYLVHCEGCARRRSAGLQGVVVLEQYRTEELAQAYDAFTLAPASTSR
# [4] = target: Lysine-specific demethylase 5C (Homo sapiens, UniProt P41229); assay: biochemical
# Sequence of Lysine-specific demethylase 5C (P41229 whole entry): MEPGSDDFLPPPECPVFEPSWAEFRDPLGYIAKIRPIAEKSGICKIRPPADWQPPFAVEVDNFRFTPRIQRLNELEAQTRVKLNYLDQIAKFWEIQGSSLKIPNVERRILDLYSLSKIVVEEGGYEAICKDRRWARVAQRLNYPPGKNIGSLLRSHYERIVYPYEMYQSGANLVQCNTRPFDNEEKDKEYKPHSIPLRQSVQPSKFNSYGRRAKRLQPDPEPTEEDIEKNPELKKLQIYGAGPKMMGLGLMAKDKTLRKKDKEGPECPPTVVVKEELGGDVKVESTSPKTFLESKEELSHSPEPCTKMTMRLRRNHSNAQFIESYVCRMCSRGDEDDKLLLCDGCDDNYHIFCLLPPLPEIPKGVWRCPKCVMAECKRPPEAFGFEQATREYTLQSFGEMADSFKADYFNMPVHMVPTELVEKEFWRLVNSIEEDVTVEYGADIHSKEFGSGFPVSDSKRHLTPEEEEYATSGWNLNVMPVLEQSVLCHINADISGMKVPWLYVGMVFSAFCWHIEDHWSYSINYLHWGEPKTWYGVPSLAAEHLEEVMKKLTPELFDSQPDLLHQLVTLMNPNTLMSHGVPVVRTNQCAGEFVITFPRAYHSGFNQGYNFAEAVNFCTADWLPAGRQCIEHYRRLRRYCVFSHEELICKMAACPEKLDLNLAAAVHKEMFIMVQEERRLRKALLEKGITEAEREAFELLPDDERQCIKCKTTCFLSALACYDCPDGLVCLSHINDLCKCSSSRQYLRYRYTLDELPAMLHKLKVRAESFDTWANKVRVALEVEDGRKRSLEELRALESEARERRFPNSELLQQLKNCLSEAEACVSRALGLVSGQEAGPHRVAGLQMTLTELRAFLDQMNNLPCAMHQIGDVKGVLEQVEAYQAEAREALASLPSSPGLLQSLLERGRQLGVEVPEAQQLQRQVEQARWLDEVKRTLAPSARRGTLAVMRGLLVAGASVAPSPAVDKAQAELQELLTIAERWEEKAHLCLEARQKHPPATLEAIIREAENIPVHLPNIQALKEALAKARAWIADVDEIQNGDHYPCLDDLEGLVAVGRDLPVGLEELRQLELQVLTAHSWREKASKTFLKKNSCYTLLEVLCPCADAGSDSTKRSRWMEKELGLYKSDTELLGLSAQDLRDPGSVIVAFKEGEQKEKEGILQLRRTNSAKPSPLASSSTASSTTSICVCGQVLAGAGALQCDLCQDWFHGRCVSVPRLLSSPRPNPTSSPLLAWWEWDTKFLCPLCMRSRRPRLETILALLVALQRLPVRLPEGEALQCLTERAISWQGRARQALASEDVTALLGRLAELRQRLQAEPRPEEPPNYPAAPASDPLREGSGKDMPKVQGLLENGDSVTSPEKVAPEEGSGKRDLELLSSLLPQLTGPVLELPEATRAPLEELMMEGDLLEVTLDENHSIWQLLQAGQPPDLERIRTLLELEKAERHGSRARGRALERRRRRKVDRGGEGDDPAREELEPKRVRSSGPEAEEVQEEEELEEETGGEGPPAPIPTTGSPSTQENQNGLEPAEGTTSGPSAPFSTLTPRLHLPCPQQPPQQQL
IC50 [1],IC50 [2],IC50 [3],IC50 [4],SMILES
< 100 nM,< 100 nM,> 1000 nM,< 100 nM,CCN(CCN(C)C)C(=O)CNCc1cc(C(=O)O)ccn1
> 2500 nM,> 2500 nM,> 2500 nM,250 nM,CCN(CCN(C)C)C(=O)CNCc1cc(CNC(=O)C(F)(F)F)ccn1
> 2500 nM,< 250 nM,> 2500 nM,< 250 nM,CCN(CC)CCCCNCc1cc(C=O)ccn1
